Test results published in paper PMC2954514 (Molecular cancer therapeutics, 2010).
Where “and” joins values, the source holds several entries; their conditions need not be identical. Identical values can stand only once. Like-named read-outs stand apart in the source and are kept apart here.

Columns and labels:
[1] = biological target: MAP-free bovine brain microtubules (Bos taurus, UniProt Q6B856); assay: Microtubule dynamic instability at plus ends; assay type: biochemical; settings: for Dynamicity, Percent Change (suppression of dynamic instability): 0.1 μmol/L (100 nmol/L) compound vs control; for Dynamicity, Percent Change (suppression of dynamic instability) / Catastrophe Frequency, Percent Change / Growing Lengths, Percent Change / Percent Time Shortening, Percent Change / Rescue Frequency, Percent Change / Shortening Lengths, Percent Change / Shortening Rates, Percent Change / Growing Rates, Percent Change / Percent Time Growing, Percent Change: (−) decrease; for Catastrophe Frequency / Dynamicity / Percent Time Attenuated / Percent Time Growing / Percent Time Shortening / Rescue Frequency / Growing Lengths / Shortening Lengths / Shortening Rates / Growing Rates: 0.1 μmol/L compound; for Percent Time Attenuated (pause), Percent Change / Catastrophe Frequency, Percent Change / Growing Lengths, Percent Change / Percent Time Shortening, Percent Change / Rescue Frequency, Percent Change / Shortening Lengths, Percent Change / Shortening Rates, Percent Change / Growing Rates, Percent Change / Percent Time Growing, Percent Change: 0.1 μmol/L compound vs control; for Percent Time Attenuated (pause), Percent Change / Growing Rates, Percent Change / Percent Time Growing, Percent Change: (+) increase; for Growing Lengths / Shortening Lengths / Shortening Rates / Growing Rates: mean ± SEM; for Growing Rates: plus ends, steady state
[2] = system: Bovine brain microtubule protein (MTP); assay: Electron microscopy of polymers formed; assay type: biochemical
[3] = biological target: soluble bovine brain tubulin (Bos taurus, UniProt Q6B856); assay: Binding to soluble tubulin
[4] = biological target: rat brain tubulin; settings: read-out: KD for tubulin reported previously; cited from earlier work
[5] = biological target: Bovine brain microtubule protein (MTP, tubulin and microtubule-associated proteins) (Bos taurus, UniProt Q6B856); assay: Inhibition of microtubule polymerization; assay type: biochemical; settings: for reduction of microtubule polymer mass: 100 nmol/L compound
[6] = biological target: steady-state microtubules (MAP-rich); assay: Binding of [3H]S-methyl DM1 to steady-state microtubules; set-up: species or system bovine
[7] = system: microtubules; settings: cited from earlier work
[8] = system: microtubules; settings: cited from earlier work; remark: listed apart in the source
[9] = system: metastatic breast cancer; settings: Phase II, patients with metastatic breast cancer; cited from earlier work
[10] = 20 μmol/L compound (maytansine: 4 μmol/L and 20 μmol/L)

Sequence of MAP-free bovine brain microtubules (Q6B856 whole entry): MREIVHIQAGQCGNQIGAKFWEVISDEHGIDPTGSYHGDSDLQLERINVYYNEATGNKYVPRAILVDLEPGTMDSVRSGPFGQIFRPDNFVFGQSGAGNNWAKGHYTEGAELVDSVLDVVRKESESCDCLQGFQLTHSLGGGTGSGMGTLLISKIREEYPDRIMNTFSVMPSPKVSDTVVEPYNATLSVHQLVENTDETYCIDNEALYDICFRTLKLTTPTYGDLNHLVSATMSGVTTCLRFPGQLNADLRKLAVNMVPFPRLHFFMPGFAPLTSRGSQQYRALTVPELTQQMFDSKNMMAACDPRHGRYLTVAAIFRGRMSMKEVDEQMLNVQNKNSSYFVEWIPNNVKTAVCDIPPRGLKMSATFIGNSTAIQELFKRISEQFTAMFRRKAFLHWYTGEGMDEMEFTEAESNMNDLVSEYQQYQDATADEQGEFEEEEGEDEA
Sequence of MAP-free bovine brain microtubules (P81947 whole entry partner): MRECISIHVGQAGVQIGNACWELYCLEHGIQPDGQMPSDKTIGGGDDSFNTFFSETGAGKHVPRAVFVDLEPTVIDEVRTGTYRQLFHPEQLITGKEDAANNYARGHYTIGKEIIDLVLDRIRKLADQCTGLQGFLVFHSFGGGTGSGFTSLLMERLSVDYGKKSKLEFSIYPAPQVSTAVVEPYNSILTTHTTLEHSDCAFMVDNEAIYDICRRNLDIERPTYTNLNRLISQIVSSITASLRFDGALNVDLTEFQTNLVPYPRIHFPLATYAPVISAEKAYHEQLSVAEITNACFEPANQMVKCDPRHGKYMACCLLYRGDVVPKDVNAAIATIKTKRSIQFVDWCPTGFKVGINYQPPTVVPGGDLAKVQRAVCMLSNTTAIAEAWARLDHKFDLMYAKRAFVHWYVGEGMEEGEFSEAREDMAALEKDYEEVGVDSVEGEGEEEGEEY
Sequence of soluble bovine brain tubulin (P81947 whole entry): as the sequence (P81947 whole entry partner) above
Sequence of soluble bovine brain tubulin (Q6B856 whole entry): as the sequence (Q6B856 whole entry) above
Sequence of Bovine brain microtubule protein (MTP, tubulin and microtubule-associated proteins) (P81947 whole entry): as the sequence (P81947 whole entry partner) above
Sequence of Bovine brain microtubule protein (MTP, tubulin and microtubule-associated proteins) (Q6B856 whole entry): as the sequence (Q6B856 whole entry) above

| Molecule | Dynamicity, Percent Change (suppression of dynamic instability) [1] | Catastrophe Frequency [1] [per min] | Dynamicity [1] | Percent Time Attenuated [1] [%] | Percent Time Growing [1] [%] | Percent Time Shortening [1] [%] | Rescue Frequency [1] [per min] | Percent Time Attenuated (pause), Percent Change [1] | Catastrophe Frequency, Percent Change [1] | Growing Lengths, Percent Change [1] | Percent Time Shortening, Percent Change [1] | Rescue Frequency, Percent Change [1] | Shortening Lengths, Percent Change [1] | Shortening Rates, Percent Change [1] | Growing Rates, Percent Change [1] | Percent Time Growing, Percent Change [1] | Growing Lengths [1] [μm/event] | Shortening Lengths [1] [μm/event] | Shortening Rates [1] [μm/min] | Growing Rates [1] [μm/min] | other results |
| --- | --- | --- | --- | --- | --- | --- | --- | --- | --- | --- | --- | --- | --- | --- | --- | --- | --- | --- | --- | --- | --- |
| COc1cc2cc(c1Cl)N(C)C(=O)C[C@H](OC(=O)[C@H](C)N(C)C(C)=O)[C@]1(C)O[C@H]1[C@H](C)[C@@H]1C[C@@](O)(NC(=O)O1)[C@H](OC)/C=C/C=C(\C)C2 [Maytansine, reference compound] | 45 (−) % | 0.21 | 0.72 | 65 | 24 | 11 | 0.60 | 5 (+) % | 30 (−) % | 37 (−) % | 26 (−) % | 40% and 40 (−) % | 40 (−) % | 35% and 35 (−) % | 35% and 35 (−) % | 3.4 (+) % | 1.2 ± 0.1 | 1.8 ± 0.9 | 5.8 ± 0.5 | 1.1 ± 0.2 | Dynamicity, Percent Change (suppression of dynamic instability) ([1]; listed as maytansine): 45%; Percent Time Attenuated (pause), Percent Change ([1]; listed as maytansine): negligible effect; Catastrophe Frequency, Percent Change ([1]; listed as maytansine): 30%; Shortening Lengths, Percent Change ([1]; listed as maytansine): 40%; polymer morphology by electron microscopy ([2]; 2 μmol/L compound): very few microtubules and no aggregates; polymer morphology by electron microscopy [2, 10]: no microtubules or aggregates; Kd [3]: 860 ± 200 nM; Kd [4]: 700 nM; inhibition at 0.1 µM ([5]; read-out: reduction of microtubule polymer mass): 20% |
| COc1cc2cc(c1Cl)N(C)C(=O)C[C@H](OC(=O)[C@H](C)N(C)C(=O)CCSC)[C@]1(C)O[C@H]1[C@H](C)[C@@H]1C[C@@](O)(NC(=O)O1)[C@H](OC)/C=C/C=C(\C)C2 [S-methyl DM1, N^2'-deacetyl-N^2'-(3-thiomethyl-1-oxopropyl)-maytansine] | 84% and 84 (−) % | 0.03 | 0.21 | 87.4 | 7.3 | 5.4 | 0.56 | 41% and 41 (+) % | 90% and 90 (−) % | 47 (−) % | 64 (−) % | 44 (−) % | 60% and 60 (−) % | 70% and 70 (−) % | 24 (−) % | 70 (−) % | 1 ± 0.1 | 1.2 ± 0.2 | 2.7 ± 0.9 | 1.3 ± 0.4 | KD of low affinity sites, fold higher than high affinity sites [6]: 20 fold; binding to high affinity sites on microtubules, fold more strongly than vinblastine [6]: 20 fold and 19 fold; number of low affinity sites [6]: several hundred; molecules bound per microtubule ([6]; 0.1 μmol/L (100 nmol/L)): 19 ± 1 and 19; mean length of the microtubules ([6]; 500 nmol/L – 4 μmol/L, standard deviation 4.5 μm): 13.9–14.1 μm; molecules bound per microtubule or sedimentable aggregate ([6]; 1 μmol/L): approximately 105; molecules bound per microtubule or sedimentable aggregate ([6]; 4 μmol/L): 210 ± 37 and ~210; number of high affinity sites per microtubule ([6]; Scatchard X-intercept): 37; mean length of the microtubules ([6]; between 0 and 100 nmol/L, maximum standard deviation 4 μm): 14.4–14.5 μm; molecules bound to sedimentable polymer, per microtubule ([6]; concentrations ≥500 nmol/L): 60–210; decrease of microtubule polymer mass ([6]; pre-assembled MAP-rich microtubules, 1 h, any concentration (0 – 4 μM)): less than 4%; Kd ([6]; read-out: KD, high affinity sites on microtubules, low drug concentrations (10 nmol/L – 100 nmol/L)): 100 ± 50 nM; Kd ([6]; read-out: KD, low affinity sites on microtubules and sedimentable aggregates, higher drug concentrations (0.1 μmol/L to 4 μmol/L)): 2200 ± 200 nM; suppression of dynamicity (change) ([1]; 20 nmol/L, data not shown): ~ 6%; concentrations inducing tubulin aggregates detectable by electron microscopy [2]: ≥ 2 µmol/L; polymer morphology by electron microscopy ([2]; 2 μmol/L compound): a small number of small aggregates along with the microtubules; polymer morphology by electron microscopy [2, 10]: an increase in aggregate formation; Kd ([3]; read-out: equilibrium dissociation constant (KD) for soluble tubulin, 3 μmol/L tubulin, PEM buffer, 45 min, 30°C): 930 nM and 900 nM; reduction of microtubule polymer mass [5]: less than 3%; concentration showing nearly complete inhibition of microtubule polymerization ([5]; MTP 3 mg/mL, 30°C): 20 µmol/L |
| COc1cc2cc(c1Cl)N(C)C(=O)C[C@H](OC(=O)[C@H](C)N(C)C(=O)CCC(C)(C)SC)[C@]1(C)O[C@H]1[C@H](C)[C@@H]1C[C@@](O)(NC(=O)O1)[C@H](OC)/C=C/C=C(\C)C2 [S-methyl DM4, N^2'-deacetyl-N^2'-(4-thiomethyl-4-methyl-1-oxopentyl)-maytansine] | 73% and 73 (−) % | 0.03 | 0.35 | 80.6 | 15.2 | 4.2 | 0.50 | 30% and 30 (+) % | 90% and 90 (−) % | 16 (−) % | 72 (−) % | 50 (−) % | 60% and 60 (−) % | 56% and 56 (−) % | 24 (−) % | 34 (−) % | 1.6 ± 0.1 | 1.2 ± 0.2 | 3.9 ± 0.4 | 1.3 ± 0.3 | concentrations inducing tubulin aggregates detectable by electron microscopy [2]: ≥ 2 µmol/L; polymer morphology by electron microscopy ([2]; 2 μmol/L compound): aggregates as well as both normal and also some imperfect, ragged microtubules with loose protofilamentous structure; polymer morphology by electron microscopy [2, 10]: more extensive aggregation of tubulin occurred with no intact microtubules; reduction of microtubule polymer mass [5]: less than 3%; plateau inhibition of polymerization ([5]; between 10 μmol/L and 20 μmol/L): 75%; plateau of sedimentable polymer, % of the control polymer mass ([5]; between 10 and 20 μmol/L): 25% |
| C=C1C[C@@H]2CC[C@@]34C[C@H]5O[C@H]6[C@@H](O3)[C@H]3O[C@H](CC[C@@H]3O[C@H]6[C@H]5O4)CC(=O)C[C@@H]3[C@@H](OC)[C@@H](C[C@H](O)CN)O[C@H]3C[C@H]3O[C@@H](CC[C@@H]1O2)C[C@@H](C)C3=C [eribulin] | – | – | – | – | – | – | – | – | – | – | – | – | – | – | – | – | – | – | – | – | high affinity binding sites per microtubule [7]: 14.7 ±1.3 |
| CC[C@]1(O)C[C@@H]2CN(CCc3c([nH]c4ccccc34)[C@@](C(=O)OC)(c3cc4c(cc3OC)N(C)[C@H]3[C@@](O)(C(=O)OC)[C@H](OC(C)=O)[C@]5(CC)C=CCN6CC[C@]43[C@@H]65)C2)C1 [vinblastine] | – | – | – | – | – | – | – | – | – | – | – | – | – | – | – | – | – | – | – | – | suppression of catastrophe frequency ([8]; 100 nmol/L): ~ 30%; suppression of growth rate ([8]; 100 nmol/L): 34%; suppression of shortening rate ([8]; 100 nmol/L): 47%; enhancement of rescue frequency [8]: ~ 200%; high affinity binding sites per microtubule [7]: 16.8 ± 4.3 |
| trastuzumab-DM1 | – | – | – | – | – | – | – | – | – | – | – | – | – | – | – | – | – | – | – | – | interim overall response rate [9]: 39% |
